Reference: patent US20230285493A1, “ANTIMICROBIAL COMPOSITION” (Mootral SA, priority 2014, published 2023)

Experiments:
Test in all cases: modified broth dilution assay, 96-well plates (MIC)
Type in all cases: cell-based
Klebsiella pneumonia = details: Klebsiella pneumoniae, overnight 37.0° C., absorbance 600 nm
Experimental: (§1) In order to determine the minimal inhibitory concentration (MIC) for the bioflavonoids (BC), allicin (AL) and ajoene (AJ) on selected Gram-positive bacteria, Gram-negative bacteria and yeast, a modified broth dilution assay using 96-well plates, according to Wiegand, Hilpert and Hancock (2008), was performed.
(§2) The microorganisms for the study were obtained from Cardiff University. The cultures used in the study were prepared by aseptic inoculation of microorganisms from pure plate cultures into 50 ml of sterile nutrient broth. The cultures were incubated overnight at 37.0° C. without agitation. Prior to use the cultures were washed by centrifugation in a desk top centrifuge at 3000 RPM for 15 minutes and the pellet resuspended in sterile saline (0.85% NaCl).
(§3) In order to determine the activity of the compounds both individually as well as in combination, a range of concentrations of each compound was used in a doubling dilution. The highest concentration used was dependent on the organism in question (whether Gram-positive bacteria, Gram-negative bacteria or yeast). From the highest concentration used in the test the samples were diluted five times in order to give six different concentrations per compound.
(§4) The allicin samples were aqueous solutions and were therefore diluted directly using H2O. However, the ajoene was in oil form and the bioflavonoids were in powder form, neither of which were water soluble. Before dilution the ajoene and bioflavonoids were solubilised by creation of a stock solution using 80% DMSO.
(§5) The wells on the 96-well plates were prepared in triplicate as follows: the AL, AJ and BC were pre-diluted in Eppendorf tubes at 10× the required final concentration. 20 μl of each dilution was added per well to give a 1:10 dilution in the final 200 μl per well. A matrix of concentrations of mixtures of allicin:bioflavonoid, ajoene:bioflavonoid and allicin:ajoene:bioflavonoid was used, with the dilution gradients of allicin and ajoene running inversely to bioflavonoids.
(§6) 130 μl of sterile nutrient broth (Nutrient Broth No. 3 (Sigma 70149)) was added to each well.
(§7) 50 μl of each microorganism suspended in saline was added to each well (except for the negative control). Each species of microorganism was added to two plates, the first for the individual (control) assays and the second for the matrix study. The plates were incubated at 37.0° C. overnight without agitation.
(§8) The plates were scanned individually using a Tecan plate reader at 600 nm and the absorbance recorded in a comma-delimited file for analysis.
(§9) The absorbance for each sample was compared to the growth (absorbance) of the control cultures (without treatment) in order to determine the MIC (all values blanked against negative control to negate absorbance of plate and broth). The mean and standard deviation of the triplicate experiments were determined and the means plotted on scatter diagrams for comparison.

Staphylococcus aureus = details: overnight 37.0° C., absorbance 600 nm
Experimental: as §1, §2, §3, §4, §5, §6, §7, §8, §9

Bacillus subtilis = details: overnight 37.0° C., absorbance 600 nm
Experimental: as §1, §2, §3, §4, §5, §6, §7, §8, §9

Candida tropicalis = details: overnight 37.0° C., absorbance 600 nm
Experimental: as §1, §2, §3, §4, §5, §6, §7, §8, §9

Escherichia coli = details: overnight 37.0° C., absorbance 600 nm
Experimental: as §1, §2, §3, §4, §5, §6, §7, §8, §9

Pseudomonas aeruginosa = details: overnight 37.0° C., absorbance 600 nm
Experimental: as §1, §2, §3, §4, §5, §6, §7, §8, §9

| SMILES | MIC (Klebsiella pneumonia) | MIC (Staphylococcus aureus) | MIC (Bacillus subtilis) | MIC (Candida tropicalis) | MIC (Escherichia coli) | MIC (Pseudomonas aeruginosa) |
| --- | --- | --- | --- | --- | --- | --- |
| C=CCSSC=CC[S+]([O-])CC=C (mixture of isomers) [Ajoene, (E,Z)-4,5,9-trithiadodeca-1,6,11-triene 9-oxide] | 12 µg/mL | 48 µg/mL | 24 µg/mL | 24 µg/mL | 24 µg/mL | 12 µg/mL |
| C=CCS[S+]([O-])CC=C (stereo not drawn) [Allicin, 2-Propene-1-sulfinothioic acid S-2-propenyl] | 46 µg/mL | 27.6 µg/mL | 9.2 µg/mL | 9.2 µg/mL | 18.4 µg/mL | 9.2 µg/mL |
